Data set [1] is described as follows: Drug uptake in human SY-cells xenografted mouse tumor at 20 MBq, iv after 50 to 60 mins by positron emission tomography. As to conditions: in vivo; call rule not given here. In kind it is ADME, organism-based, Neoplasm. On the technique in general: A xenograft is tissue or cells of one species grown in another, often human tumour cells in immunodeficient mice.
Data set [2] is described as follows: Drug uptake in human SY-cells xenografted mouse tumor at 200 kBq, iv after 15 to 25 mins by positron emission tomography. The data set is classed as ADME, organism-based, Neoplasm. As to conditions: in vivo.

Data on 3 molecules can be found in ChEMBL document CHEMBL1770151, “An efficient and expedient method for the synthesis of 11C-labeled α-aminoisobutyric acid: a tumor imaging agent potentially useful for cancer diagnosis” (Bioorg Med Chem Lett, 2011).

Regarding `[11CH3]SCC[C@H](N)C(=O)O`, the Drug uptake entry in data set [1] was “Active”.
The same measure, in the same setting: to `CC([11CH3])(N)C(=O)O` (stereo not drawn) belongs “Active”.
On to `OC[C@H]1O[C@@H](O)[C@H]([18F])[C@@H](O)[C@@H]1O` [FLUDEOXYGLUCOSE-F18], for which, in data set [2], the Drug uptake entry is “Active”.
